“And” between values parts separate entries of the source, which are not always exact repeats. Equal entries are not always repeated.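 Exposure lasted 48 hours, with cells grown in 96-well plates and compounds tested at five concentrations. GI50 is the concentration that inhibits growth by half. TGI denotes the concentration required for complete inhibition of growth.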
Experiments:
Test in all cases: DTP human tumour cell line panel, 48 h
HOP-18 NSCLC = tested on: HOP-18 NSCLC
OVCAR-8 ovarian = tested on: OVCAR-8 ovarian
LXFL 529 NSCLC = tested on: LXFL 529 NSCLC
DMS 273 small cell lung = tested on: DMS 273 small cell lung
SN12C renal = tested on: SN12C renal
K-562 leukemia = tested on: K-562 leukemia
SNB-78 CNS = tested on: SNB-78 CNS
ACHN renal = tested on: ACHN renal
MOLT-4 leukemia = tested on: MOLT-4 leukemia
T-47D breast = tested on: T-47D breast

Compound	GI50 (HOP-18 NSCLC) [µM]	TGI (HOP-18 NSCLC) [µM]	GI50 (OVCAR-8 ovarian) [µM]	TGI (OVCAR-8 ovarian)	GI50 (LXFL 529 NSCLC) [µM]	TGI (LXFL 529 NSCLC) [µM]	GI50 (DMS 273 small cell lung) [µM]	TGI (DMS 273 small cell lung) [µM]	GI50 (SN12C renal) [µM]	TGI (SN12C renal) [µM]	GI50 (K-562 leukemia) [µM]	TGI (K-562 leukemia) [µM]	GI50 (SNB-78 CNS) [µM]	TGI (SNB-78 CNS) [µM]	GI50 (ACHN renal) [µM]	TGI (ACHN renal) [µM]	GI50 (MOLT-4 leukemia) [µM]	TGI (MOLT-4 leukemia)	TGI (T-47D breast) [µM]	GI50 (T-47D breast) [µM]
[Cl][Sn]([c]1ccccc1)[c]1ccccc1	3.27	9.24	11.5	17.2 µM	1.4	3.13	10	34	9.18	22.9	2.14	7.31	6.96	31	11.9	24.2	2.91	28.9 µM	–	–
c1cncc(C2c3[nH]c4ccccc4c3CCN2CCN2CCCCC2)c1 (configuration not stated)	–	> 100	–	> 100 µM	–	> 100	–	> 100	–	> 100	–	> 100	–	> 100	–	> 100	–	> 100 µM	–	–
c1cc2c(cnc3cscc32)s1	–	–	–	> 100 µM	–	–	–	> 100	–	> 100	–	> 100	–	> 100	–	> 100	–	> 100 µM	–	–
Cn1c(=O)c2c(nc3n2CCC(=O)N3)n(C)c1=O	–	–	–	> 100 µM	–	> 100	–	> 100	–	> 100	–	> 100	–	> 100	–	> 100	–	> 100 µM	–	–
COC(=O)C12C3C4C1C1C2C3C41I (configuration not stated)	–	> 100	–	> 100 µM	–	> 100	–	–	–	> 100	–	> 100	–	> 100	–	> 100	–	> 100 µM	–	–
Cc1c(C(=O)CC(=O)C(=O)NC2C3CC4CC(C3)CC2C4)[n+](=O)c2ccccc2n1[O-] (configuration not stated)	–	> 100	–	> 100 µM	–	> 100	–	> 100	–	> 100	–	> 100	–	> 100	–	> 100	–	> 100 µM	–	–
CC(=O)O/C(C)=C\C(=O)O/N=C(\N)c1ccc(C)cc1	–	98.6	–	> 100 µM	–	59.9	–	> 100	–	57.4	–	52.1	–	70.9	–	> 100	–	> 100 µM	–	–
CCOC(=O)/C=C(/CN1C(=O)c2ccccc2C1=O)c1ccccc1	–	> 100	–	> 100 µM	–	> 100	–	> 100	–	> 100	–	> 100	–	> 100	–	> 100	–	> 100 µM	–	–
CN(C)CCNC(=O)c1cc([N+](=O)[O-])cc2ccc(-c3ccccc3)nc12	–	26.3	–	> 39.2 µM	–	58	–	31.7	–	> 62.7	–	54.1	–	> 60.9	–	28.5	–	–	–	–
COc1ccc(N=Cc2ccc(N(CCC#N)CCC#N)cc2)cc1	–	> 100	–	> 100 µM	–	> 84.5	–	> 100	–	> 100	–	> 100	–	> 100	–	> 100	–	> 100 µM	> 100	–
O=C1c2cccc3cc([N+](=O)[O-])cc(c23)C(=O)N1CCCN1CCN(CCCN2C(=O)c3cccc4cc([N+](=O)[O-])cc(c34)C2=O)CC1	–	7.81	–	> 100 µM	–	> 100	–	–	–	> 100	–	> 100	–	12.9	–	4.28	–	> 100 µM	–	–
O=c1oc2c3ccc4ccccc4c3n(Cc3nc4ccccc4[nH]3)c2c2ccccc12	–	> 100	–	> 100 µM	–	> 100	–	–	–	> 100	–	> 100	–	> 100	–	> 100	–	> 100 µM	–	–
CC1(C)OC2C(=O)OC(COCc3ccccc3)C2O1 (configuration not stated)	–	> 100	–	> 100 µM	–	> 100	–	> 100	–	> 100	–	> 100	–	> 100	–	> 100	–	> 100 µM	–	–
CCOC(OC1=C(C#N)CCC1)C(CC)[Se]c1ccccc1 (configuration not stated)	–	69.5	–	65.2 µM	–	48.5	–	24.2	–	32.3	–	> 100	–	> 100	–	81.9	–	48.8 µM	–	–
CCCCS(=N)(=O)CC[C@H](N)C(=O)O (some centres not stated)	–	> 5000	–	2920 µM and > 2770 µM	–	–	–	> 5000	> 10000	> 10000	11.3	> 10000	–	> 5000	> 10000	> 10000	1540	3810 µM and > 10000 µM	> 10000	> 10000
c1ccc(COc2ccc3[nH]c4c(ncc5[nH]c6ccccc6c54)c3c2)cc1	–	26.1	–	32.2 µM	–	29.5	–	30.4	–	29.7	–	6.11	–	40	–	31.6	–	31.6 µM	–	–

From PubChem BioAssay (NCI)
